The record followed here is publication PMC2892903 (Journal of agricultural and food chemistry, 2010).

This series in a line: Plasma pharmacokinetics. The class given is in vivo, Sprague-Dawley rats. The note with it: rat plasma, any confection treatment (CDK, CHS, CMP).

On to `Oc1cc(O)c2c(c1)O[C@H](c1ccc(O)c(O)c1)[C@H](O)C2` (racemic) [(±)-EC, (−)-epicatechin], for which the “Detection in plasma (HPLC-MS)” value was “minor component in blood”.
For `Oc1cc(O)c2c(c1)OC(c1ccc(O)c(O)c1)C(O)C2` (racemic) [(±)-C, (±)-catechin] the value was “No intact (±)-C, (±)-C/EC sulfated metabolites or unconjugated O-Me-(±)-C/EC metabolites were detected in the plasma”.
